In the NIST ThermoML archive (doi:10.1021/acs.jced.7b00135):
Where “and” joins values, the source holds several entries; their conditions need not be identical. Equal entries are not always repeated.

Key:
[1] = Liquid, Closed cell (Static) method
[2] = wn = mass fraction of the nth substance listed; settings: 100 kPa, Liquid; for viscosity: Capillary tube (Ostwald / Ubbelohde) method; for mass density: Vibrating tube method

O [water]
[1]
Settings	vapor or sublimation pressure
274.15 K	0.661 kPa and 0.657 kPa
278.15 K	0.873 kPa
279.48 K	0.953 kPa
283.15 K	1.228 kPa
286.16 K	1.508 kPa
291.39 K	2.094 kPa
293.14 K	2.337 kPa
293.15 K	2.339 kPa
296.31 K	2.839 kPa
296.32 K	2.834 kPa
298.81 K	3.288 kPa
301.37 K	3.827 kPa
303.15 K	4.247 kPa
303.57 K	4.36 kPa
307.73 K	5.507 kPa
308.26 K	5.666 kPa
312.87 K	7.275 kPa
313.07 K	7.345 kPa
313.15 K	7.385 kPa
314.62 K	7.977 kPa
318.13 K	9.585 kPa and 9.578 kPa
322.99 K	12.26 kPa
323.1 K	12.32 kPa
323.15 K	12.35 kPa
323.17 K	12.36 kPa
328.14 K	15.75 kPa
328.88 K	16.31 kPa
333.15 K	20.06 kPa and 19.95 kPa
343.15 K	31.28 kPa and 31.2 kPa
353.15 K	47.45 kPa and 47.41 kPa
363.15 K	70.21 kPa and 70.18 kPa
373.15 K	101.42 kPa and 101.42 kPa
383.15 K	143.29 kPa and 143.38 kPa
393.15 K	198.75 kPa and 198.67 kPa
403.15 K	270.22 kPa and 270.28 kPa
413.15 K	361.64 kPa and 361.54 kPa
423.15 K	476.33 kPa and 476.17 kPa
433.15 K	618.34 kPa and 618.24 kPa
443.15 K	792.15 kPa and 792.19 kPa
453.15 K	1002.7 kPa and 1002.8 kPa
463.15 K	1255.2 kPa and 1255.2 kPa
468.15 K	1398.9 kPa
470.15 K	1459.7 kPa
471.15 K	1491 kPa and 1490.9 kPa

O=S(=O)([N-]S(=O)(=O)C(F)(F)F)C(F)(F)F.[Li+] [lithium bis((trifluoromethyl)sulfonyl)amide] + O
[2]
Settings	mass density, 298.15 K [kg/m3]	mass density, 323.15 K [kg/m3]	mass density, 348.15 K [kg/m3]	mass density, 373.15 K [kg/m3]	viscosity, 298.15 K [mPa·s]	viscosity, 323.15 K [mPa·s]	viscosity, 348.15 K [mPa·s]	viscosity, 373.15 K [mPa·s]
w1 = 0.2739	1160	1148	1131	1109	1.54	0.88	0.59	0.48
w1 = 0.4871	1325	1304	1282	1258	2.74	1.5	1	0.68
w1 = 0.6633	1493	1467	1440	1401	5.34	2.83	1.82	1.54
w1 = 0.8024	1654	1624	1598	1557	18.23	8.75	5.2	3.42
